Each structure is given as a SMILES string. Converted amounts (≈) assume the structure as drawn. A value given as a limit tells only on which side of the number the result lay.

Format in all cases: functional
For one assay, the system named is Escherichia coli. Briefly: Antibacterial activity against Escherichia coli 1356 incubated for 24 hrs serial dilution method. The following applies: Escherichia coli, 1356, 24 h.
The test system of assay [1] is Staphylococcus aureus. Briefly: Antibacterial activity against Staphylococcus aureus KCTC 209 incubated for 24 hrs serial dilution method. The following applies: KCTC 209, 24 h.
Assay [2] relates to Staphylococcus aureus. Briefly: Antibacterial activity against quinolone-resistant Staphylococcus aureus CCARM 3505 incubated for 24 hrs serial dilution method. The following applies: CCARM 3505, 24 h.
The subject of assay [3] is Staphylococcus aureus. Briefly: Antibacterial activity against Staphylococcus aureus KCTC 503 incubated for 24 hrs serial dilution method. The following applies: KCTC 503, 24 h.
The subject of assay [4] is Staphylococcus aureus. Briefly: Antibacterial activity against quinolone-resistant Staphylococcus aureus CCARM 3519 incubated for 24 hrs serial dilution method. The following applies: CCARM 3519, 24 h.
For assay [5], the system named is Staphylococcus aureus. Briefly: Antibacterial activity against Staphylococcus aureus RN 4220 incubated for 24 hrs serial dilution method. The following applies: RN 4220, 24 h.
Assay [6] concerns Staphylococcus aureus. Briefly: Antibacterial activity against multidrug-resistant Staphylococcus aureus CCARM 3167 incubated for 24 hrs serial dilution method. The following applies: CCARM 3167, 24 h.
For assay [7], the system named is Staphylococcus aureus. Briefly: Antibacterial activity against multidrug-resistant Staphylococcus aureus CCARM 3506 incubated for 24 hrs serial dilution method. The following applies: CCARM 3506, 24 h.

Broadly, the MIC is the least concentration at which growth counts as inhibited. The low end stands for inhibition by little substance, the high end for a need for much substance. As for `Cc1nn(-c2ccccc2)c(Oc2ccc(Br)cc2)c1/C=C1\SC(=S)N([C@@H](Cc2ccc(O)cc2)C(=O)O)C1=O`, the MIC is > 64 mg/L in the assay with Escherichia coli; > 64 mg/L in the assay on Staphylococcus aureus [1]; 8 mg/L (≈ 12.6 µM) against Staphylococcus aureus [2]; > 64 mg/L against Staphylococcus aureus [3]; 8 mg/L (≈ 12.6 µM) in the assay on Staphylococcus aureus [4]; 8 mg/L (≈ 12.6 µM) in the assay with Staphylococcus aureus [5]. In addition, the minimum inhibitory concentration (MIC) with Staphylococcus aureus [6] and against Staphylococcus aureus [7] was 8 mg/L (≈ 12.6 µM) in each case.
For `COc1ccccc1Oc1c(/C=C2\SC(=S)N([C@@H](Cc3ccc(O)cc3)C(=O)O)C2=O)c(C)nn1-c1ccccc1`, the minimal inhibitory concentration (MIC) against Escherichia coli was > 64 mg/L; in the assay with Staphylococcus aureus [1] it was > 64 mg/L; in the assay on Staphylococcus aureus [3], > 64 mg/L; in the assay on Staphylococcus aureus [5] it was > 32 mg/L.
`Cc1nn(-c2ccccc2)c(Oc2c(Cl)cccc2Cl)c1/C=C1\SC(=S)N([C@@H](Cc2ccc(O)cc2)C(=O)O)C1=O`: the minimal inhibitory concentration (MIC) in the assay with Escherichia coli was > 64 mg/L; against Staphylococcus aureus [1] it was > 64 mg/L; in the assay with Staphylococcus aureus [2], 16 mg/L (≈ 25.5 µM); in the assay on Staphylococcus aureus [3], > 64 mg/L; in the assay on Staphylococcus aureus [4], 16 mg/L (≈ 25.5 µM); against Staphylococcus aureus [5], 16 mg/L (≈ 25.5 µM). For the same molecule, the MIC with Staphylococcus aureus [6] and in the assay with Staphylococcus aureus [7] was 8 mg/L (≈ 12.8 µM) each time.
On to `Cc1nn(-c2ccccc2)c(Oc2cccc(Cl)c2)c1/C=C1\SC(=S)N([C@@H](Cc2c[nH]c3ccccc23)C(=O)O)C1=O`, for which the minimal inhibitory concentration (MIC) with Escherichia coli was > 64 mg/L; against Staphylococcus aureus [1], > 64 mg/L; in the assay on Staphylococcus aureus [2], 4 mg/L (≈ 6.5 µM); with Staphylococcus aureus [3] it was > 64 mg/L; against Staphylococcus aureus [4], 4 mg/L (≈ 6.5 µM); with Staphylococcus aureus [5] it was 4 mg/L (≈ 6.5 µM). The minimum inhibitory concentration (MIC) against Staphylococcus aureus [6] worked out at 2 mg/L (≈ 3.25 µM); against Staphylococcus aureus [7] it was 4 mg/L (≈ 6.5 µM).
With `COc1ccc(Oc2c(/C=C3\SC(=S)N([C@@H](Cc4c[nH]c5ccccc45)C(=O)O)C3=O)c(C)nn2-c2ccccc2)cc1`, the MIC against Escherichia coli is > 64 mg/L; with Staphylococcus aureus [1], > 64 mg/L; in the assay on Staphylococcus aureus [2], 8 mg/L (≈ 13.1 µM); against Staphylococcus aureus [3], > 64 mg/L; in the assay on Staphylococcus aureus [4] it was 8 mg/L (≈ 13.1 µM); in the assay with Staphylococcus aureus [5], 8 mg/L (≈ 13.1 µM). Moreover, the minimal inhibitory concentration (MIC) against Staphylococcus aureus [6] and against Staphylococcus aureus [7] was 4 mg/L (≈ 6.55 µM) in each case.
As for `Cc1nn(-c2ccccc2)c(Oc2ccccc2Cl)c1/C=C1\SC(=S)N([C@@H](Cc2c[nH]c3ccccc23)C(=O)O)C1=O`, the minimum inhibitory concentration (MIC) was > 64 mg/L against Escherichia coli; > 64 mg/L with Staphylococcus aureus [1]; 4 mg/L (≈ 6.5 µM) in the assay with Staphylococcus aureus [2]; > 64 mg/L in the assay with Staphylococcus aureus [3]; 4 mg/L (≈ 6.5 µM) against Staphylococcus aureus [4]; 4 mg/L (≈ 6.5 µM) in the assay on Staphylococcus aureus [5]. Further, the MIC in the assay with Staphylococcus aureus [6] was found to be 2 mg/L (≈ 3.25 µM); in the assay with Staphylococcus aureus [7], 4 mg/L (≈ 6.5 µM).
`CCn1cc(C(=O)O)c(=O)c2cc(F)c(N3CCNCC3)cc21` [NORFLOXACIN]: the minimum inhibitory concentration (MIC) against Escherichia coli is > 16 mg/L; in the assay with Staphylococcus aureus [1], 2 mg/L (≈ 6.26 µM); in the assay with Staphylococcus aureus [2] it was > 64 mg/L; in the assay on Staphylococcus aureus [3] it was 2 mg/L (≈ 6.26 µM); in the assay on Staphylococcus aureus [4], > 64 mg/L; against Staphylococcus aureus [5], 2 mg/L (≈ 6.26 µM). Further, the MIC is 8 mg/L (≈ 25.1 µM) against Staphylococcus aureus [6] and 4 mg/L (≈ 12.5 µM) in the assay with Staphylococcus aureus [7].
In the case of `Cc1nn(-c2ccccc2)c(Oc2ccc(Cl)cc2Cl)c1/C=C1\SC(=S)N([C@@H](Cc2ccc(O)cc2)C(=O)O)C1=O`, the MIC with Escherichia coli is > 64 mg/L; against Staphylococcus aureus [1], > 64 mg/L; in the assay with Staphylococcus aureus [2], 8 mg/L (≈ 12.8 µM); against Staphylococcus aureus [3] it was > 64 mg/L; in the assay with Staphylococcus aureus [4] it was 8 mg/L (≈ 12.8 µM); against Staphylococcus aureus [5] it was 8 mg/L (≈ 12.8 µM). For the same molecule, the minimal inhibitory concentration (MIC) in the assay on Staphylococcus aureus [6] and in the assay with Staphylococcus aureus [7] was 8 mg/L (≈ 12.8 µM) throughout.
Regarding `Cc1nn(-c2ccccc2)c(Oc2ccccc2Cl)c1/C=C1\SC(=S)N([C@@H](Cc2ccc(O)cc2)C(=O)O)C1=O`, the minimum inhibitory concentration (MIC) with Escherichia coli was > 64 mg/L; in the assay with Staphylococcus aureus [1], > 64 mg/L; against Staphylococcus aureus [3], > 64 mg/L; against Staphylococcus aureus [5], > 32 mg/L.
For `Cc1nn(-c2ccccc2)c(Oc2cccc(Cl)c2)c1/C=C1\SC(=S)N([C@@H](Cc2ccc(O)cc2)C(=O)O)C1=O`, the MIC is > 64 mg/L with Escherichia coli; > 64 mg/L in the assay with Staphylococcus aureus [1]; 32 mg/L (≈ 54 µM) against Staphylococcus aureus [2]; > 64 mg/L with Staphylococcus aureus [3]; 16 mg/L (≈ 27 µM) with Staphylococcus aureus [4]; 16 mg/L (≈ 27 µM) in the assay with Staphylococcus aureus [5]. The minimal inhibitory concentration (MIC) with Staphylococcus aureus [6] was 8 mg/L (≈ 13.5 µM); with Staphylococcus aureus [7], 16 mg/L (≈ 27 µM).
Consider `Cc1nn(-c2ccccc2)c(Oc2ccc3ccccc3c2)c1/C=C1\SC(=S)N([C@@H](Cc2c[nH]c3ccccc23)C(=O)O)C1=O`, for which the MIC against Escherichia coli is > 64 mg/L; against Staphylococcus aureus [1], > 64 mg/L; with Staphylococcus aureus [2], 2 mg/L (≈ 3.17 µM); against Staphylococcus aureus [3], > 64 mg/L; against Staphylococcus aureus [4] it was 2 mg/L (≈ 3.17 µM); in the assay on Staphylococcus aureus [5] it was 2 mg/L (≈ 3.17 µM). The MIC with Staphylococcus aureus [6] and with Staphylococcus aureus [7] was 2 mg/L (≈ 3.17 µM) each time.
For the molecule `Cc1cccc(Oc2c(/C=C3\SC(=S)N([C@@H](Cc4ccc(O)cc4)C(=O)O)C3=O)c(C)nn2-c2ccccc2)c1`, the minimal inhibitory concentration (MIC) with Escherichia coli is > 64 mg/L; against Staphylococcus aureus [1] it was > 64 mg/L; in the assay on Staphylococcus aureus [2], 16 mg/L (≈ 28 µM); with Staphylococcus aureus [3] it was > 64 mg/L; against Staphylococcus aureus [4], 16 mg/L (≈ 28 µM); against Staphylococcus aureus [5] it was 16 mg/L (≈ 28 µM). Besides, the figures for the MIC against Staphylococcus aureus [6] and with Staphylococcus aureus [7] were 16 mg/L (≈ 28 µM) and 8 mg/L (≈ 14 µM), respectively.
Regarding `COc1ccc(Oc2c(/C=C3\SC(=S)N([C@@H](Cc4ccc(O)cc4)C(=O)O)C3=O)c(C)nn2-c2ccccc2)cc1`, the MIC is > 64 mg/L against Escherichia coli, > 64 mg/L in the assay with Staphylococcus aureus [1], > 64 mg/L against Staphylococcus aureus [3] and > 32 mg/L against Staphylococcus aureus [5].
For the molecule `Cc1onc(-c2ccccc2)c1C(=O)N[C@@H]1C(=O)N2[C@@H]1SC(C)(C)[C@@H]2C(=O)O` [OXACILLIN], the MIC in the assay with Escherichia coli is > 64 mg/L; with Staphylococcus aureus [1], 1 mg/L (≈ 2.49 µM); against Staphylococcus aureus [2], 1 mg/L (≈ 2.49 µM); against Staphylococcus aureus [3] it was 1 mg/L (≈ 2.49 µM); against Staphylococcus aureus [4] it was 1 mg/L (≈ 2.49 µM); in the assay on Staphylococcus aureus [5], 1 mg/L (≈ 2.49 µM). The MIC in the assay on Staphylococcus aureus [6] and in the assay on Staphylococcus aureus [7] was > 64 mg/L throughout.
`Cc1ccccc1Oc1c(/C=C2\SC(=S)N([C@@H](Cc3ccc(O)cc3)C(=O)O)C2=O)c(C)nn1-c1ccccc1`: the minimal inhibitory concentration (MIC) was > 64 mg/L against Escherichia coli; > 64 mg/L in the assay with Staphylococcus aureus [1]; 32 mg/L (≈ 56 µM) with Staphylococcus aureus [2]; > 64 mg/L against Staphylococcus aureus [3]; 32 mg/L (≈ 56 µM) against Staphylococcus aureus [4]; 16 mg/L (≈ 28 µM) against Staphylococcus aureus [5]. In addition, the MIC against Staphylococcus aureus [6] and against Staphylococcus aureus [7] was 16 mg/L (≈ 28 µM) in each case.
Consider `Cc1nn(-c2ccccc2)c(Oc2ccc(Cl)cc2)c1/C=C1\SC(=S)N([C@@H](Cc2c[nH]c3ccccc23)C(=O)O)C1=O`, for which the minimal inhibitory concentration (MIC) against Escherichia coli is > 64 mg/L; in the assay on Staphylococcus aureus [1] it was > 64 mg/L; against Staphylococcus aureus [2] it was 2 mg/L (≈ 3.25 µM); against Staphylococcus aureus [3], > 64 mg/L; against Staphylococcus aureus [4], 2 mg/L (≈ 3.25 µM); in the assay with Staphylococcus aureus [5], 2 mg/L (≈ 3.25 µM). Besides, the MIC in the assay on Staphylococcus aureus [6] and in the assay on Staphylococcus aureus [7] was 2 mg/L (≈ 3.25 µM) each time.
Regarding `Cc1nn(-c2ccccc2)c(Oc2cccc(C(F)(F)F)c2)c1/C=C1\SC(=S)N([C@@H](Cc2ccc(O)cc2)C(=O)O)C1=O`, the MIC with Escherichia coli is > 64 mg/L; in the assay on Staphylococcus aureus [1], > 64 mg/L; against Staphylococcus aureus [2], 32 mg/L (≈ 51.1 µM); against Staphylococcus aureus [3], > 64 mg/L; in the assay with Staphylococcus aureus [4], 32 mg/L (≈ 51.1 µM); with Staphylococcus aureus [5], 16 mg/L (≈ 25.6 µM). Also, the MIC in the assay on Staphylococcus aureus [6] and in the assay with Staphylococcus aureus [7] was 16 mg/L (≈ 25.6 µM) throughout.
With `Cc1nn(-c2ccccc2)c(Oc2ccc(F)cc2)c1/C=C1\SC(=S)N([C@@H](Cc2ccc(O)cc2)C(=O)O)C1=O`, the MIC in the assay on Escherichia coli was > 64 mg/L; with Staphylococcus aureus [1], > 64 mg/L; with Staphylococcus aureus [3] it was > 64 mg/L; in the assay with Staphylococcus aureus [5] it was > 32 mg/L.
For `Cc1nn(-c2ccccc2)c(Oc2ccccc2)c1/C=C1\SC(=S)N([C@@H](Cc2ccc(O)cc2)C(=O)O)C1=O`, the MIC was > 64 mg/L with Escherichia coli, > 64 mg/L in the assay on Staphylococcus aureus [1], > 64 mg/L in the assay on Staphylococcus aureus [3] and > 32 mg/L with Staphylococcus aureus [5].

These data come from ChEMBL document CHEMBL2203015, “Synthesis and biological evaluation of 5-aryloxypyrazole derivatives bearing a rhodanine-3-aromatic acid as potential antimicrobial agents” (Bioorg Med Chem Lett, 2012).
